According to ChEMBL document CHEMBL1129874, “A SHORT AND EFFICIENT SYNTHESIS OF ZAMIFENACIN A MUSCARINIC M3 RECEPTOR ANTAGONIST” (Bioorg Med Chem Lett, 1997):
Calls of active or inactive are those of the source.

Tests used:
Homo sapiens [1] = species on record: Homo sapiens; test: Compound was tested for the inhibition of the small bowel motility in humans; Active; assay type: functional, organism-based
Canis familiaris = species on record: Canis familiaris; test: Compound was tested for the inhibition of the gastrointestinal motility in dogs; Active; assay type: functional, organism-based; details: Canis lupus familiaris
Homo sapiens [2] = species on record: Homo sapiens; test: Compound was tested for the inhibition of the colonic motility in humans; Active; assay type: functional, organism-based
[3] = target: Muscarinic acetylcholine receptor M3 (Homo sapiens) (UniProt P20309); test: Evaluated for the in vivo antagonistic activity against muscarinic M3 receptor; Active; assay type: functional, organism-based
Chain of Muscarinic acetylcholine receptor M3 (Homo sapiens) (P20309 whole entry, looked up): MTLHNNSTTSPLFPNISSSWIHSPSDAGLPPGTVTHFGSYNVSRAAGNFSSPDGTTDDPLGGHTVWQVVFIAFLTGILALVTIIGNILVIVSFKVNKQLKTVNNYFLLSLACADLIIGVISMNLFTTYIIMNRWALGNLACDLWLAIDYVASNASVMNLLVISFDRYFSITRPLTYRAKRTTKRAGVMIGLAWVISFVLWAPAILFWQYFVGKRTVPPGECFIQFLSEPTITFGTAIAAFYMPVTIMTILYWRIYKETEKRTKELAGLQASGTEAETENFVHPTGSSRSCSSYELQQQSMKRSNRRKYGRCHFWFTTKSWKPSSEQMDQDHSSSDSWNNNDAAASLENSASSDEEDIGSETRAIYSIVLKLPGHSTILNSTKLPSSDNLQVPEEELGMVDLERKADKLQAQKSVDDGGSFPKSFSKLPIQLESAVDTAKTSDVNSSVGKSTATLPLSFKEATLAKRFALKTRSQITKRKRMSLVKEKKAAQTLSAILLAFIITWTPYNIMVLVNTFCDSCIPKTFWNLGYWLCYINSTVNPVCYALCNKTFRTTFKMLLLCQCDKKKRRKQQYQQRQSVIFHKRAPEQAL

[4] = target: T1, Muscarinic acetylcholine receptor M2 (Homo sapiens) (UniProt P08172); test: Evaluated for the in vitro antagonistic activity against muscarinic M2 receptor; Active; assay type: functional
T1 sequence (whole entry): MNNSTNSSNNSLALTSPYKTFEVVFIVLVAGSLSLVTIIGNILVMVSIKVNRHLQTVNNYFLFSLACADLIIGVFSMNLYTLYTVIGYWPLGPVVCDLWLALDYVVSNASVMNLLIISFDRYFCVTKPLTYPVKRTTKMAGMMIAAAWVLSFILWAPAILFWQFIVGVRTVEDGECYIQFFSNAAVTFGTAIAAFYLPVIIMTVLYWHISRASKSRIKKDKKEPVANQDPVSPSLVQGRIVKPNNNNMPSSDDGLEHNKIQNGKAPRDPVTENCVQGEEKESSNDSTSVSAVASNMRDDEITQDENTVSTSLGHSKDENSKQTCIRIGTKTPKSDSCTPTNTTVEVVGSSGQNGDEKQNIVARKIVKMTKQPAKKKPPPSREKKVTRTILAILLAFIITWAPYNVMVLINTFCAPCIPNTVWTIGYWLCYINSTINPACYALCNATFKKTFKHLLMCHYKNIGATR

Measured: Activity

c1ccc(C(O[C@@H]2CCCN(CCc3ccc4c(c3)OCO4)C2)c2ccccc2)cc1
active: Homo sapiens [1] | Canis familiaris | Homo sapiens [2] | [3] | [4]
